Results as given in PubChem BioAssay AID504313 (Emory University Molecular Libraries Screening Center, 2011).
Active and inactive are the calls of the source. The rule behind the calls is not given here.

Each compound was assayed against X-box-binding protein 1 (Homo sapiens) (UniProt P17861) (assay: inhibitors of XBP1 reporter signal, dose response, counter-screen, cell-based (AID 504313;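 note: CHO cells carrying an XBP1 reporter stimulated with tunicamycin; potency is for inhibition of the tunicamycin-induced reporter signal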)). Settings: XBP1 reporter cell assay, percent of control.

| SMILES | IC50 |
| --- | --- |
| O=C(COc1ccc(Cl)cc1Cl)NCCC1=CCCCC1 | 4.23 µM |
| C=CCn1c(CCNC(=O)c2ccc(Cl)c(Cl)c2)nnc1SCCOc1ccc(OC)cc1 | > 10 µM (inactive) |
| CCCNC(=O)c1nnsc1S(=O)(=O)c1ccc(Cl)cc1 | 0.87 µM |
| C=C(C)COc1ccc(-c2n[nH]c(C)c2Oc2ccccc2OC)c(O)c1 | inactive |
| COc1ccc(Cn2c(C)c(C)c(C#N)c2NC(=O)Nc2ccc(Cl)cc2)cc1 | > 10 µM (inactive) |
| O=C1/C(=C/c2ccncc2)SC(=S)N1C1CCS(=O)(=O)C1 (stereo not drawn) | inactive |
| O=C1C(=C2SCCCS2)CC/C1=C\c1ccc(F)cc1 | 3.13 µM |
| Cc1ccc(/C=N/NC(=O)CCCOc2ccc(Cl)cc2Cl)cc1 | > 10 µM (inactive) |
| CCOc1cc(/C=C2/C(=O)ON=C2C)ccc1OCc1ccc(F)cc1 | > 10 µM (inactive) |
| O=S1(=O)C=C(Sc2nc3cc(Cl)ccc3o2)c2ccccc21 | 4.42 µM |
| CC(C)C[C@H](NC(=O)c1nc[nH]c1C(=O)NCC(=O)OC(C)(C)C)C(=O)OCc1ccccc1 | inactive |
| Cc1ccc(S(=O)(=O)CC#CCOC(=O)c2ccc([N+](=O)[O-])cc2)cc1 | inactive |
| Cc1ccc(NC(=O)c2cc3ccccc3oc2=O)cc1S(=O)(=O)N(C)C | < 0.16 µM |
| Cc1ccccc1/C=N/Nc1ccnc2cc(Cl)ccc12 | > 10 µM (inactive) |
| Nc1c(S(=O)(=O)c2cccc(Cl)c2)c2nc3ccccc3nc2n1/N=C/c1ccc(O)c(O)c1 | > 10 µM (inactive) |
| CCOc1ccc(/C=N/NC(=O)c2cc(-c3ccco3)nc3ccccc23)cc1 | inactive |
| O=C1c2ccccc2C(=O)C1c1nccc2ccccc12 | inactive |
| Cn1c(=O)c([N+](=O)[O-])c(Cl)c2ccccc21 | inactive |
| COC(=O)Oc1ccc(/C=N/NC(=O)CSCc2ccccc2Br)cc1OC | > 10 µM (inactive) |
| O=C1CC(c2ccccc2)CC(O)=C1C=Nc1cccc(Cl)c1 (stereo not drawn) | > 10 µM (inactive) |
| O=S(=O)(/C(=C/c1ccc(C(F)(F)F)cc1)c1nc2ccccc2[nH]1)c1ccccc1 | 2.22 µM |
| COc1ccccc1-c1nnc(NC(=O)c2ccc(S(=O)(=O)N(C)Cc3ccccc3)cc2)o1 | inactive |
| COc1cc(CNCc2ccccn2)ccc1OCc1ccc(Cl)cc1Cl | > 10 µM (inactive) |
| COc1cc([C@@H]2c3cc4c(cc3[C@@H](O)[C@@H](CO)[C@@H]2CO)OCO4)cc(OC)c1O[Si](C)(C)C(C)(C)C | inactive |

| SMILES | IC50 |
| --- | --- |
| CCOC(=O)c1ccc(NC(=O)c2nc[nH]c2C(=O)N[C@@H](C)C(=O)OC(C)(C)C)cc1 | inactive |
| CCOc1cc(NC(=O)CCl)c(OCC)cc1NC(=O)CCl | > 10 µM (inactive) |
| O=S(=O)(N/N=C/c1ccc(Cl)cc1)c1ccc(Cc2ncc(C(F)(F)F)cc2Cl)s1 | inactive |
| Nc1c(S(=O)(=O)c2ccccc2)c2nc3ccccc3nc2n1/N=C/c1cccc(O)c1 | > 10 µM (inactive) |
| CC(C)Oc1ccc(CNC(=O)CC(c2ccccc2)c2cc(Cl)ccc2O)cc1 (stereo not drawn) | > 10 µM (inactive) |
| Cc1sc(NC(=O)c2cccc([N+](=O)[O-])c2)c(C(N)=O)c1-c1ccc(C(C)(C)C)cc1 | 4.11 µM |
| Cc1cc(C(C)(C)C)oc1C(=O)N1CCN(C(=O)c2oc(C(C)(C)C)cc2C)CC1 | > 10 µM (inactive) |
| CC(C)(C)C(=O)Cn1ncc(Br)c(Br)c1=O | > 10 µM (inactive) |
| O=C(c1ccco1)N1CCN(c2c(-c3ccccc3)c3cc(Cl)ccc3[nH]c2=O)CC1 | > 10 µM (inactive) |
| Cn1c(=O)[nH]c(=O)c2[nH]c(N(Cc3ccccc3)Cc3ccccc3)nc21 | > 10 µM (inactive) |
| CC(C)=CCc1c(O)cc2oc3c(CC=C(C)C)c(O)c(O)c(CC=C(C)C)c3c(=O)c2c1O | 5.24 µM |
| O=Cc1s/c(=N\S(=O)(=O)c2ccccc2)n(CCCCl)c1Cl | inactive |
| Cc1cc(Cl)ccc1OCC(=O)N[C@@H](Cc1ccccc1)c1nc2ccccc2[nH]1 | > 10 µM (inactive) |
| O=C(CN1CCN(c2ncc(C(F)(F)F)cc2Cl)CC1)NCCNc1ncc(C(F)(F)F)cc1Cl | inactive |
| O=C(Nc1cc(N2CCOCC2)ncn1)NC1(C(F)(F)F)Oc2ccc(Cl)cc2O1 (stereo not drawn) | > 10 µM (inactive) |
| Cc1cc(/C=N/n2cnnc2)c(C)n1-c1ccc(OCc2ccc(Cl)cc2Cl)cc1 | 0.35 µM |
| Cc1nc(NC(=O)CSc2nc3cccnc3n2Cc2ccccc2)sc1C | > 10 µM (inactive) |
| CCOC(=O)c1cc(-c2ccccc2)nc2c1c(C)nn2-c1ccccn1 | > 10 µM (inactive) |
| COc1ccc(C(=O)/C=C/C(=O)N(CC(=O)NC2CCCCC2)Cc2ccc(F)cc2)c(O)c1 | 2.25 µM |
| O=C1C=CC(O)(c2cc(=O)c3c(O)cc(O)cc3o2)C=C1 | 3.84 µM |
| COc1ccc([C@H]2Oc3cc(O)cc(O)c3C(=O)C2[C@@H]2C(=O)c3c(O)cc(O)cc3O[C@@H]2c2ccc(OC)cc2)cc1 (stereo partly drawn) | > 10 µM (inactive) |
| CC(C)(C)c1cc(S(=O)(=O)CCc2ccccn2)cc(C(C)(C)C)c1F | inactive |
| CCCCCCCCCS(=O)(=O)N/N=C/c1cccc([N+](=O)[O-])c1 | inactive |
| O=S(=O)(Nc1cc(Sc2ncn[nH]2)c(O)c2ccccc12)c1ccccc1 | inactive |
